Measurements: patent US20060148763A1, “Compounds and methods for regulating triglyceride levels” (priority 2005, published 2006)

Test system: serum triglyceride levels
Assay: Rabbit hypercholesteremic model (2% cholesterol diet, 7 weeks): serum triglycerides
Format: in vivo, Male New Zealand white rabbits
Conditions: hypercholesterol diet, n = 5, P5P 10 mg/kg/day, simvastatin 5 mg/kg/day oral
Description: The anti-atherogenic effects of P5P alone and in combination with simvastatin in a rabbit hypercholesteremic model were determined. The study compared the effects of P5P and simvastatin alone and in combination on atherosclerotic lesion formation, lipid profile (total cholesterol, LDL, HDL, triglycerides and oxidized LDL), homocysteine levels and various markers of inflammation (CRP, IL-1β, IL-6, IFN-γ and TNF-α).
Animals—Male New Zealand white rabbits 2.0-3.0 kg.
Animal Feed—The normocholesterol diet is Co-op Complete Rabbit Feed manufactured by Federated Co-operatives Limited (Saskatchewan). The 2% cholesterol diet is Test Diet 0009459 MRab/2% Chol 3/16 manufactured by Purina Mills (USA).
The rabbits were fed the normocholesterol and 2% cholesterol diet ad libitum. All animals received a timothy cube after blood sampling. […]
Group 3: Hypercholesterol diet+P5P 10 mg/kg/day
Group 4: Hypercholesterol diet+simvastatin 5 mg/kg/day
Group 5: Hypercholesterol diet+P5P 10 mg/kg/day+simvastatin 5 mg/kg/day
The rabbits were fed a normocholesterol or hypercholesterol diet for a total of 7 weeks. The normocholesterol rabbits were treated once per day with 1 ml of ethanol and 5 ml of RO water via a nasogastric tube. The hypercholesterol animals were treated once per day with either P5P (10 mg/kg), simvastatin (5 mg/kg) or a combination of P5P and simvastatin (P5P 10 mg/kg; simvastatin 5 mg/kg) via a nasogastric tube. The P5P was dissolved in 5 ml of 0.05 N NaOH so that the pH of the solution is approximately 7. The simvastatin was dissolved in 1 ml of anhydrous ethanol.
Five ml of blood was collected from the marginal ear vein of the rabbits at 0, 2, 4 and 6 weeks. Prior to blood collection the animals were sedated with 1 mg/kg of acepromazine. Following collection, the serum was separated. The serum is aliquoted (500 μl) and frozen at −80° C. until used for the assaying various lipids (total cholesterol, LDL, HDL, triglycerides, oxidized LDL) and cytokines (CRP, IL-1β, IL-6, IFN-γ and TNF-α).
At 7 weeks, the animals were anesthetized and 10 ml of blood was collected. Then the animals were euthanized, and the heart and thoracic aorta removed. The hearts and aortas were frozen in liquid nitrogen or an ethanol dry ice bath and stored at −80° C. until analyzed.
Test Articles—P5P (pyridoxal 5′-phosphate monohydrate) was purchased from Sigma (P82870). Simvastatin is obtained from ACIC Fine Chemicals Inc. Two test compound vials were provided for each animal for each day. The first vial (small) was diluted in 1 ml of anhydrous ethanol. The second vial was diluted in either 5 ml of RO water or 5 ml of 0.05 N NaOH. The diluent for each vial was clearly marked on the vial. The test solutions were prepared fresh each day just before they were administered to the animals. The stock P5P was stored in a refrigerator at 4° C. under low light conditions. The simvastatin was stored following the manufacture recommendations. The individual test vials were stored in a refrigerator at 4° C. under low light conditions.
Test Article(s) Dose, Route of Administration and Duration—The rabbits were treated orally with the drugs, once per day for a total of 7 weeks. The contents of vial one (small; 1 ml) were given to the animals first, followed by the contents of vial 2 (large; 5 ml). The test compound treatments were followed by a 5 ml RO water chaser.

## CCC(C)(C)C(=O)O[C@H]1C[C@@H](C)C=C2C=C[C@H](C)[C@H](CC[C@@H]3C[C@@H](O)CC(=O)O3)[C@H]21 [Simvastatin, simvastatin, reference compound]
  Triglycerides, Week 2: 0.986 mmol/L
  Triglycerides, Week 4: 1.588 mmol/L
  Triglycerides, Week 6: 2.158 mmol/L
End of study
  Triglycerides, Week 7: 1.766 mmol/L
Start of study
  Triglycerides, Week 0: 0.956 mmol/L
